Laboratory results as given in publication PMC6530361, “Anti-tumor Efficacy Assessment of the Sigma Receptor Pan Modulator RC-106. A Promising Therapeutic Tool for Pancreatic Cancer” (Frontiers in Pharmacology, 2019).

Experiment: In vivo pharmacokinetic study, plasma
Design: species or system male CD-1 mice
Details: mice
Experimental: The experiments were performed in agreement with the Italian Law D. L.vo 4 marzo 2014, n. 26. The treatments involved male CD-1 mice and a unique number on the tail identified each animal. Mice were housed, in groups of four, in cages suitable for the species. After 5 days of adaptation to the local housing conditions, animals were housed in a single, exclusive, air-conditioned room to provide a minimum of 15 air changes/hour. The environmental controls were set to maintain the temperature at around 22°C and the relative humidity within the range 50 to 60%, along with an approximate 12:12 h light/dark cycle automatically controlled. Food (Mucedola Standard GLP diet) and water were available ad libitum throughout the entire duration of the study. All animals were weighted on the day of the treatment.
Mice (n = 4/time point) received an intraperitoneal administration (i.p., 10 mL/kg) of RC-106 at 10 mg/kg. CD-1 male mice were exsanguinated under anesthesia (isoflurane) from the aorta at the following time points: 5, 10, 30, 120, 240, and 480 min. Blood samples were collected in tubes containing heparin, gently mixed and immediately placed on ice. Afterward, they have been centrifuged (3500 × g, at 4°C for 15 min), the obtained plasma has been collected and transferred to individually labeled tubes and frozen at -20°C until the analysis. Plasma samples were used for quantification of RC-106. Pancreas was taken by surgical resection after 20 min from the last treatment, washed in saline, dried on paper, weighted and frozen at -20°C. The organ was homogenized using a Velp OV5 homogenizer with 20 mM ammonium formiate buffer in a ratio of 1 g of tissue per 10 mL of buffer.
20 mg/mL stock solution (s.s.) of RC-106 was prepared by dissolving the compound in DMSO. 1 mL of 5% Tween80 in H2O was slowly added to 500 μL of s.s. under stirring. Then 8.5 mL of water was gently spiked to obtain the 1 mg/mL formulation of RC-106.
Standard curves of RC-106 were prepared for plasma and pancreas homogenate, and analyzed together with each QC and unknown sample set. For the PK and pancreas distribution sample analysis, plasma and pancreas homogenate samples (50 μL) were spiked in 200 μL of IS in MeOH (0.1 μg/mL of RC-33), followed by 2 min vortex mixing. Samples were centrifuged and transferred in UFLC vials. 5 μL aliquots of the collected samples were injected into the LC-MS/MS system. Standard calibration graphs were constructed by linear least-squares regression analysis on the analyte/IS area ratio plotted against sample concentration. Calibration ranges were from 5 to 1000 ng/mL for plasma, and from 5 to 500 ng/mL for pancreas homogenate. Accuracy values were determined in triplicates at three different concentrations (high, medium, and low) in the range of linearity of the calibration curves.
Analyses were acquired on a Shimadzu AC20 UFLC system interfaced with an API 3200 Triple Quadrupole detector (AB Sciex). Data acquisition and control were performed using the Analyst^TM 6.1 (Applied Biosystems) Software. A Phenomenex Gemini-NX C18 (50 mm × 2 mm, 5 μm) column was selected to carry out the analytical evaluations. A gradient method was set up (Supplementary Table S1) and it provided the employment of water and methanol, both containing 0.1% of formic acid, at a flow rate of 0.3 mL/min. The LC eluate was directly introduced into the MS interface using the ESI in the positive ion mode. The MRM transitions m/z 181.2 were tracked (Supplementary Table S2).

[1] = male, CD-1, mouse, plasma, ip, 10 mg/kg

Cmax [1]: 973 ng/mL
AUC(0-t) (male, CD-1, mouse, plasma, ip, 10 mg/kg, i.p., 10 mg/kg, read-out: AUC0-t, plasma (converted)): 1130 ng·h/mL
concentration at 5 min (male, CD-1, mouse, plasma, ip, 5 min after i.p. 10 mg/kg, read-out: plasma C): 973 ng/mL
concentration at 10 min (male, CD-1, mouse, plasma, ip, 10 min after i.p. 10 mg/kg, read-out: plasma C): 884 ng/mL
concentration at 30 min (male, CD-1, mouse, plasma, ip, 30 min after i.p. 10 mg/kg, read-out: plasma C): 361 ng/mL
concentration at 120 min (male, CD-1, mouse, plasma, ip, 120 min after i.p. 10 mg/kg, read-out: plasma C): 134 ng/mL
concentration at 240 min (male, CD-1, mouse, plasma, ip, 240 min after i.p. 10 mg/kg, read-out: plasma C): 76 ng/mL
concentration at 480 min (male, CD-1, mouse, plasma, ip, 480 min after i.p. 10 mg/kg, read-out: plasma C): 38 ng/mL
Tmax [1]: 5 min
half-life (male, CD-1, mouse, plasma, ip, i.p., 10 mg/kg, read-out: t1/2, plasma): 3.37 h
AUC0-t, plasma (i.p., 10 mg/kg): 67987 ng·min/mL
Cmax, plasma (i.p., 10 mg/kg): 973 ± 167 ng/mL
SMILES: C/C(=C\CN1CCC(Cc2ccccc2)CC1)c1ccc2ccccc2c1 [RC-106, (E)-4-benzyl-1-(3-(naphthalen-2-yl)but-2-en-1-yl)piperidine]
